Experimental data reported in patent publication US20130303535A1, “NOVEL BICYCLIC HETEROCYCLIC COMPOUND” (priority 2008, published 2013).
Counter-ions that a name gives are not always drawn.

Target: TTX resistant Na channel of human SNS-expressing cell (SNS) (Homo sapiens, UniProt Q9Y5Y9)
Experiment: cell-based
Conditions: CHO-K1, compound concentration 12.5 μM; read-out: SNS inhibitory rate (%)

TTX resistant Na channel of human SNS-expressing cell (SNS), sequence (Q9Y5Y9 whole entry, looked up): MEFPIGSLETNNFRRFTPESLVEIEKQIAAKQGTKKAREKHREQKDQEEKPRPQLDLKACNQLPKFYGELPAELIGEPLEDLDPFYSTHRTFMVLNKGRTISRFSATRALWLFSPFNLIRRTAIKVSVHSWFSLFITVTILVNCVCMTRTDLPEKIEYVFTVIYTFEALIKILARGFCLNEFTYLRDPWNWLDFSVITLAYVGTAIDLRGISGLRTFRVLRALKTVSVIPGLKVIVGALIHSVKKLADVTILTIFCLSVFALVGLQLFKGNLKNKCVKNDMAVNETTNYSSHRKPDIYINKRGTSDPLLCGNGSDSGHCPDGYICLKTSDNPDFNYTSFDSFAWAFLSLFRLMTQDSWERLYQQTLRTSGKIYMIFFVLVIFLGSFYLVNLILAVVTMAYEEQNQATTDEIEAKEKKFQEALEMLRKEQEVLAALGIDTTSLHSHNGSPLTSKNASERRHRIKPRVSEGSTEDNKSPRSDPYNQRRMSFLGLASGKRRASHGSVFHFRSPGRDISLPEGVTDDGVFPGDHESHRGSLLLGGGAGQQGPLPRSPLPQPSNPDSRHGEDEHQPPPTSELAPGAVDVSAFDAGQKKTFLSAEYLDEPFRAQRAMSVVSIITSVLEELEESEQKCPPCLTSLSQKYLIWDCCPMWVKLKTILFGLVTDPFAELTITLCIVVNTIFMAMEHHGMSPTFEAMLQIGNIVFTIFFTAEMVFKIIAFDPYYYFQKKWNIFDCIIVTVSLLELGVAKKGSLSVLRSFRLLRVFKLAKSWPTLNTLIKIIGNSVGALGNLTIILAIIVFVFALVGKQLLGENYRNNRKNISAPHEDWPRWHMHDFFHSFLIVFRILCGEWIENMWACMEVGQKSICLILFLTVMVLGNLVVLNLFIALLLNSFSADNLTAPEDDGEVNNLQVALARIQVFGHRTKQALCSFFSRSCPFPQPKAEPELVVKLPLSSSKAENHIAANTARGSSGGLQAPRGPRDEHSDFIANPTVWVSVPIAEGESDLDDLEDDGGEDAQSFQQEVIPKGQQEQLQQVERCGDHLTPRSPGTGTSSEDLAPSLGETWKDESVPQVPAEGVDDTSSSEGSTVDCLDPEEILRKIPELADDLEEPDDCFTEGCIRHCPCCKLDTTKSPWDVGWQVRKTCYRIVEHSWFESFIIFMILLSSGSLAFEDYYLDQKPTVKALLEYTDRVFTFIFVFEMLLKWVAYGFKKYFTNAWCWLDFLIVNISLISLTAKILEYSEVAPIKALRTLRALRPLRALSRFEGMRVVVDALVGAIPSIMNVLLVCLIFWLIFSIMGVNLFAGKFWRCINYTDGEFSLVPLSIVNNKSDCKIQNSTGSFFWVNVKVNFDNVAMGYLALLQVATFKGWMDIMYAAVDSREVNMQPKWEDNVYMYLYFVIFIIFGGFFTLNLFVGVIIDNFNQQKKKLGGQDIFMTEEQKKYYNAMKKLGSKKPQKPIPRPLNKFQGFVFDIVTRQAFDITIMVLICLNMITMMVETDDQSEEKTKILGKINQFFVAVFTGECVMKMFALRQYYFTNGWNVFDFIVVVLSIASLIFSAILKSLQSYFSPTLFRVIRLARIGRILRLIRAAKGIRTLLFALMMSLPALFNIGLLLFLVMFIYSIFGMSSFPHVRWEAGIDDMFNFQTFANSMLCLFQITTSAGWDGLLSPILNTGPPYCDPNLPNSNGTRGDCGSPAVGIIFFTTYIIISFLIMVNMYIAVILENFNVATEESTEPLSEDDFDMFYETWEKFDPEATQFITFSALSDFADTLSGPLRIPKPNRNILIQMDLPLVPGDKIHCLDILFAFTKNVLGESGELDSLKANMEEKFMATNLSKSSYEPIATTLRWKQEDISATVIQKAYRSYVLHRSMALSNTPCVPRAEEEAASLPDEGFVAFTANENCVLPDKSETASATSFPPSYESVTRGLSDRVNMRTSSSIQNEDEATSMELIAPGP

Structure (SMILES)	inhibition at 12.5 µM
CCOCCn1c(CNCC(N)=O)nc2ccc(-c3ccc(F)cc3)cc21 [Example 67]	30.8%
NC(=O)CNCc1nc2ccc(Oc3ccccc3)cc2n1CC1CCOCC1 [Example 14]	16.4%
CCOCCn1c(CN[C@@H](C)C(N)=O)nc2cc(C)c(-c3ccc(F)c(F)c3)cc21 [Example 190]	34.3%
C[C@H](NCc1nc2ccc(Oc3ccc(OC(F)(F)F)cc3)cc2n1C[C@@H]1CCCO1)C(N)=O [Example 120]	92.4%
CCOCCn1c(CN[C@@H](C)C(N)=O)nc2ccc(-c3ccc(C(F)(F)F)cc3)cc21 [Example 146]	19.7%
CCOCCn1c(CNC(C)(C)C(N)=O)nc2ccc(Oc3ccc(F)cc3)cc21 [Example 5, N^2-{[1-(2-ethoxyethyl)-6-(4-fluorophenoxy)-1H-benzimidazol-2-yl]methyl}-2-methylalaninamide]	59.3%
CC(C)NC(=O)N1CCC(n2c(CN[C@@H](C)C(N)=O)nc3ccc(Oc4ccc(F)cc4)cc32)CC1 [Example 84, 4-[2-({[(2S)-1-amino-1-oxopropan-2-yl]amino}methyl)-6-(4-fluorophenoxy)-1H-benzimidazol-1-yl]-N-(propan-2-yl)piperidine-1-carboxamide]	76.8%
CCOCCn1c(CNCC(N)=O)nc2ccc(Oc3ccc(F)cc3)cc21 [Example 3, N^2-{[1-(2-ethoxyethyl)-6-(4-fluorophenoxy)-1H-benzimidazol-2-yl]methyl}glycinamide]	12.9%
CCOCCn1c(CN[C@@H](CC)C(N)=O)nc2ccc(-c3ccc(F)cc3)cc21 [Example 150]	45.6%
NC(=O)CNCc1nc2ccc(Oc3ccccc3)cc2n1C1CCCC1 [Example 25]	0%
CCOCCn1c(CN[C@H](C(N)=O)C(C)C)nc2ccc(-c3ccc(F)cc3)cc21 [Example 151]	26.6%
CCOCCn1c(CN[C@@H](C)C(N)=O)nc2ccc(Oc3ccccc3Cl)cc21 [Example 31]	92.1%
C[C@H](NCc1nc2ccc(Oc3ccc(OC(F)(F)F)cc3)cc2n1CCO)C(N)=O [Example 134]	95.7%
CCOCCn1c(CN[C@@H](C)C(N)=O)nc2ccc(Oc3ccc(F)cc3)cc21 [Example 59, N^2-{[1-(2-ethoxyethyl)-6-(4-fluorophenoxy)-1H-benzimidazol-2-yl]methyl}-L-alaninamide]	54.8%
CCOCCn1c(CNC(C)(C)C(N)=O)nc2ccc(Oc3ccc(F)c(F)c3)cc21 [Example 141]	90.3%
CCn1c(CNC(C)(C)C(N)=O)nc2ccc(-c3ccc(F)cc3)cc21 [Example 154]	11.2%
CCOCCn1c(CN[C@H](C)C(N)=O)nc2ccc(Oc3ccc(F)cc3)cc21 [Example 54]	95.7%
CCOCCn1c(CN[C@@H](C)C(N)=O)nc2cc(F)c(-c3ccc(C)c(F)c3)cc21 [Example 189]	97.7%
CCOCCn1c(CN[C@@H](C)C(N)=O)nc2ccc(OCc3ccccc3)cc21 [Example 76, N^2-{[6-(benzyloxy)-1-(2-ethoxyethyl)-1H-benzimidazol-2-yl]methyl}-L-alaninamide]	18.8%
CCOCCn1c(CN[C@@H](C)C(N)=O)nc2ccc(-c3ccc(F)cc3)cc21 [Example 68]	16%
C[C@H](NCc1nc2cc(F)c(-c3ccc(F)cc3)cc2n1C1CCOCC1)C(N)=O [Example 116, N^2-{[5-fluoro-6-(4-fluorophenyl)-1-(tetrahydro-2H-pyran-4-yl)-1H-benzimidazol-2-yl]methyl}-L-alaninamide]	33.2%

Structure (SMILES)	inhibition at 12.5 µM
CCOCCn1c(CNCC(N)=O)nc2ccc(Oc3ccc(Cl)cc3)cc21 [Example 28]	27.4%
CCOCCn1c(CNCC(N)=O)nc2ccc(Oc3ccccc3)cc21 [Example 2, N^2-{[1-(2-ethoxyethyl)-6-phenoxy-1H-benzimidazol-2-yl]methyl}glycinamide]	8.4%
CCn1c(CN[C@@H](C)C(N)=O)nc2ccc(Oc3ccc(F)cc3F)cc21 [Example 98]	69.8%
CCOCCn1c(CN[C@@H](C)C(N)=O)nc2cc(F)c(Oc3ccc(F)cc3)cc21 [Example 81, N^2-{[1-(2-ethoxyethyl)-5-fluoro-6-(4-fluorophenoxy)-1H-benzimidazol-2-yl]methyl}-L-alaninamide]	69.1%
NC(=O)CNCc1nc2ccc(Oc3ccc(F)cc3)cc2n1C1CCOCC1 [Example 65]	47.8%
C[C@@H](NCc1nc2ccc(Oc3ccccc3)cc2n1C1CCC1)C(N)=O [Example 34]	6.7%
Cc1ccc(Oc2ccc3nc(CN[C@@H](C)C(N)=O)n(C4CCOCC4)c3c2)cc1 [Example 129]	90.3%
CCOCCn1c(CN[C@@H](C)C(N)=O)nc2ccc(-c3ccc(C)c(C)c3)cc21 [Example 161]	76.2%
CCOCCn1c(CN[C@H](C(N)=O)C(C)C)nc2ccc(Oc3ccccc3)cc21 [Example 38]	48.8%
CCOCCn1c(CN[C@@H](C)C(N)=O)nc2cc(-c3ccc(OC)cc3)ccc21 [Example 192, N^2-{[1-(2-ethoxyethyl)-5-(4-methoxyphenyl)-1H-benzimidazol-2-yl]methyl}-L-alaninamide trifluoroacetate]	11.9%
CCOCCn1c(CNC(C)(C)C(N)=O)nc2ccc(-c3ccc(F)cc3C)cc21 [Example 158]	86.1%
NC(=O)CNCc1nc2ccc(Oc3ccc(F)cc3)cc2n1C1CCC1 [Example 18]	14.2%
CC(=O)N1CCC(n2c(CN[C@@H](C)C(N)=O)nc3ccc(Oc4ccc(F)cc4)cc32)CC1 [Example 85, N^2-{[1-(1-acetylpiperidin-4-yl)-6-(4-fluorophenoxy)-1H-benzimidazol-2-yl]methyl}-L-alaninamide]	24.9%
CCOCCn1c(CN[C@@H](C)C(N)=O)nc2ccc(-c3ccc(F)cc3C)cc21 [Example 157]	89.9%
CCOCCn1c(CN[C@@H](C)C(N)=O)nc2ccc(-c3ccc(F)cc3Cl)cc21 [Example 155]	86.1%
CCOCCn1c(CN[C@@H](C)C(N)=O)nc2cc(F)c(-c3ccc(C)cc3)cc21 [Example 184]	87.9%
CCOCCn1c(CNC(C)(C)C(N)=O)nc2ccc(Oc3ccccc3Cl)cc21 [Example 32]	91.2%
CCOCCn1c(CNC(C)(C)C(N)=O)nc2ccc(-c3ccc(F)c(C)c3)cc21 [Example 168]	20.2%
CCOCCn1c(CN[C@@H](C)C(N)=O)nc2ccc(Oc3cccc(F)c3)cc21 [Example 53]	94%
C[C@H](NCc1nc2ccc(Oc3ccc(F)cc3)cc2n1C[C@@H]1CCCO1)C(N)=O [Example 56]	82.2%
CCOCCn1c(CN[C@@H](C)C(N)=O)nc2cc(F)c(-c3ccc(F)cc3)cc21 [Example 109, N^2-{[1-(2-ethoxyethyl)-5-fluoro-6-(4-fluorophenyl)-1H-benzimidazol-2-yl]methyl}-L-alaninamide]	89.3%

Structure (SMILES)	inhibition at 12.5 µM
C[C@H](NCc1nc2ccc(Oc3ccc(F)cc3)cc2n1CC(C)(C)O)C(N)=O [Example 50]	86.8%
CCOCCn1c(CNC(C)(C)C(N)=O)nc2ccc(OCc3ccccc3)cc21 [Example 77, N^2-{[6-(benzyloxy)-1-(2-ethoxyethyl)-1H-benzimidazol-2-yl]methyl}-2-methylalaninamide]	16%
COCCn1c(CNC(C)(C)C(N)=O)nc2ccc(Oc3ccc(F)cc3)cc21 [Example 91, N^2-{[6-(4-fluorophenoxy)-1-(2-methoxyethyl)-1H-benzimidazol-2-yl]methyl}-2-methylalaninamide]	76.4%
CCOCCn1c(CNC(C)(C)C(N)=O)nc2ccc(-c3ccc(C)c(F)c3)cc21 [Example 170]	14.2%
Cc1ccc(Oc2ccc3nc(CN[C@@H](C)C(N)=O)n(CC(C)(C)O)c3c2)cc1 [Example 101]	85.2%
COCCCn1c(CNC(C)(C)C(N)=O)nc2ccc(Oc3ccc(C)cc3)cc21 [Example 142]	47.9%
CCOCCn1c(CNCC(N)=O)nc2ccc(-c3ccccc3)cc21 [Example 66, N^2-{[1-(2-ethoxyethyl)-6-phenyl-1H-benzimidazol-2-yl]methyl}glycinamide]	16.8%
CCOCCn1c(CN[C@@H](C)C(N)=O)nc2ccc(Oc3cccc(Cl)c3)cc21 [Example 29]	27%
C[C@H](NCc1nc2ccc(Oc3ccc(F)cc3F)cc2n1C1CC1)C(N)=O [Example 99]	65.4%
CCOCCn1c(CN[C@@H](C)C(N)=O)nc2cc(F)c(-c3ccc(Cl)cc3)cc21 [Example 186]	55.6%
NC(=O)[C@@H]1CCCN1Cc1nc2ccc(Oc3ccccc3)cc2n1C[C@@H]1CCCO1 [Example 21]	100%
CCOCCn1c(CN[C@@H](C)C(N)=O)nc2cc(C(F)(F)F)c(-c3ccc(F)cc3)cc21 [Example 115, N^2-{[1-(2-ethoxyethyl)-6-(4-fluorophenyl)-5-(trifluoromethyl)-1H-benzimidazol-2-yl]methyl}-L-alaninamide]	3.5%
C[C@H](NCc1nc2ccc(Oc3ccc(OC(F)(F)F)cc3)cc2n1C[C@H]1CCCO1)C(N)=O [Example 132]	86.4%
CCn1c(CN[C@@H](C)C(N)=O)nc2ccc(Oc3ccc(OC(F)(F)F)cc3)cc21 [Example 104]	83.6%
CCn1c(CNC(C)(C)C(N)=O)nc2cc(F)c(-c3ccc(F)cc3)cc21 [Example 187]	53.3%
CCOCCn1c(CNC(C)(C)C(N)=O)nc2ccc(-c3ccc(F)cc3)cc21 [Example 149]	30.6%
CCOCCn1c(CN[C@@H](C)C(N)=O)nc2ccc(Oc3ccc(CC)cc3)cc21 [Example 102]	96.3%
CCOCCn1c(CN[C@@H](C)C(N)=O)nc2ccc(-c3ccc(C)cc3)nc21 [Example 209, N^2-{[3-(2-ethoxyethyl)-5-(4-methylphenyl)-3H-imidazo[4,5-b]pyridin-2-yl]methyl}-L-alaninamide hydrochloride]	6.5%
COCCCn1c(CN[C@@H](C)C(N)=O)nc2ccc(Oc3ccc(F)c(F)c3)cc21 [Example 122]	100%
